Two compounds from patent publication US20240225984A9, “TOPICAL COMPOSITION FOR REGULATION OF INFLAMMATION AND SKIN REGENERATION” (Glycopep Therapeutics, S.A.S. de C.V., priority 2022, published 2024) can be followed below.

A short description of data set [1]: Viability of HaCaT human keratinocytes (mitochondrial metabolic activity, tetrazolium salts / MTT). To be noted: HaCaT cells (immortalized keratinocytes).
Procedure: (§1) We worked with HaCaT cells, an immortalized human keratinocyte cell line, which were cultured in DMEM medium supplemented (1 g/L glucose, 4 mM L-alanyl-glutamine, 10% inactivated fetal bovine serum, 50 IU/penicillin, 50 μg/ml streptomycin) at 37° C. and 5% CO2. Cells were worked between passages 3 to 7.
(§2) They were treated with 2.5 and 5% sialylated GMP, alone or combined with 0.5 and 1% panthenol for 0, 1, 2, 24 and 48 h. To define the percentage of viability of the cells with the different treatments at each of the times tested, cells not treated with either sialidinated GMP or panthenol were used as a control condition.
(§3) Once the time was up, cell viability was determined by measuring mitochondrial metabolic activity by spectrophotometric techniques and using tetrazolium salts.
A further data set has as its system IL-1β. Briefly: IL-1β/GAPDH mRNA expression in HaCaT keratinocytes with or without DNCB. The conditions noted are these: without DNCB; FIG. 4. Format: cell-based, human. The text has this: To verify that the composition of the present invention regulates the expression of genes associated with inflammation, the expression of IL-1β/GAPDH and Cox-2/GAPDH mRNA was quantified. When keratinocytes are exposed to IL-1β, they increase the levels of messenger RNA of other cytokines such as MIP-2, TNF-α, IL-10 and IL-1α. In this sense, the regulation of IL-1β is beneficial during inflammatory processes in the skin. The regulation of COX-2 is beneficial during inflammatory processes and wound regeneration.
Cells were worked between passages 3 to 7.
They were seeded in 6-well plates at a density of […] and incubated for 24 h at close to 20% confluency. After three days, 75% confluences were achieved.

Procedure for HaCaT cells: as §1, §2, §3

As to `CC(C)(CO)[C@@H](O)C(=O)NCCCO` [panthenol, Panthenol], in data set [1], the cytotoxicity at 1 % came to 30% and the cytotoxicity at 2 h, 0.5 % was found to be 30%.

Regarding glycomacropeptide [GMP], the “expression level of IL-1β mRNA in relation to control cells” value in the data set on IL-1β is on record as “decreased”. For the same compound, in the data set with HaCaT cells, the cell viability entry is recorded as “greater than 50%”.
